Patent US8759315B2, “Methods for rejuvenating” (Viacell, LLC, priority 2003, dated 2014)

What was measured:
Whole blood = experiment: Rejuvenation of stored whole blood, DPG assay; type: cell-based
Method: (§1) The DPG assay was as follows: • To 2 mL Tris buffer with EDTA, was added 0.05 ml ATP 40 mM plus NADH 9.6 mM; 0.04 ml PGM (Sigma kit 665PA, Sigma, Inc. St. Louis, Mo.) and 0.1 ml RBC. The reaction mixture was allowed to equilibrate for five minutes at room temperature and the absorption at 339 nm wavelength was recorded. Next was added 0.02 ml PGM and 0.02 ml glycolate-2-phosphate. The reaction was allowed to proceed for 25 minutes and the absorption at 339 nm wavelength was recorded. The packed cell DPG equals (μmol/ml)×100 divided by the hematocrit.
An experiment was devised to determine whether the DPG levels could be brought back to approximate initial levels, that is, whether the RBC could be rejuvenated. Whole blood with heparin as anticoagulant was held at room temperature for 6 days, at which time DPG levels were undetectable. D-ribose at 10 mM was added and the blood was incubated at 37° C. for thirty minutes. […] The incubation time will be extended to determine whether the DPG levels can be further increased.

RBC [1] = experiment: Oxygen dissociation curve (P50) of stored and rejuvenated blood; type: cell-based; settings: six-day CPD sample rejuvenated as for Example 3A (10 mM D-ribose, 37° C., thirty minutes)
Description: When the percent saturation of oxygen in blood is plotted against the partial pressure of oxygen (mmHg), the resulting curve is shown in FIG. 2. A shift to the right occurs when DPG is increased or pH is decreased. Consistent with the DPG experiments, the oxygen tension giving 50% saturation (P50) after six days storage in CPD was 43 mmHg. When this sample was rejuvenated as for Example 3A above, the P50 was 18.2 mmHg.

RBC [2] = experiment: Rejuvenation with D-ribose and phosphoenolpyruvate, DPG assay; type: cell-based; settings: six days at room temperature, then 15 mM D-ribose, 10 mM to 100 mM PEP or both, 37°, 30 minutes; day 0 about 2 μmol/ml (FIG. 3)
Method: as §1
The rejuvenation experiment of Example 4 was repeated adding the high energy glycolysis intermediate phosphoenolpyruvate (PEP). Samples were held at for six days at room temperature until DPG levels were barely detectable. At that point, 15 mM D-ribose, 10 mM to 100 mM PEP or both were added and the blood incubated at 37° for 30 minutes. […] Adding PEP gave some benefit, raising the DPG levels to nearly 1 μmol/ml. Ribose also raised levels to about 1 μmol/ml. The effect of ribose plus PEP was additive: levels exceeded 1.5 μmol/ml, nearly the levels on day 0.

RBC [3] = settings: 42 days of storage at 4° C.; D-ribose: 15mM D-ribose and 10 mM phosphate added to CPD; cited from earlier work

SMILES | DPG after rejuvenation, as part of the usual initial value (Whole blood; whole blood with heparin held 6 days at room temperature (DPG undetectable), 10 mM D-ribose, 37° C., thirty minutes) | oxygen tension giving 50% saturation (P50) (RBC [1]) [mmHg] | DPG levels after rejuvenation (RBC [2]) | 2,3 DPG level maintained, of its initial level (RBC [3]) | effect on rejuvenation (Whole blood; ribose reduced to one mM or increased to 100 mM, inosine substituted for ribose)
O=C[C@H](O)[C@H](O)[C@H](O)CO [D-ribose] | about one-third | 18.2 | about 1 μmol/ml | about 50% | 
C=C(OP(=O)(O)O)C(=O)O [PEP, phosphoenolpyruvate] |  |  | about 1 μmol/ml |  | 
OC[C@H]1O[C@@H](n2cnc3c(O)ncnc32)[C@H](O)[C@@H]1O [inosine] |  |  |  |  | equally beneficial effects on rejuvenation
